Measurements taken from patent US20250281457A1, “TREATMENT OR PREVENTION OF DENGUE VIRAL INFECTION” (Janssen Pharmaceuticals, Inc., priority 2022, published 2025).
Where two headings read alike, the source gives them in different places.

Experiment: Effect of food on plasma pharmacokinetics after single oral dose of SF2a/b (Example 2)
Format: in vivo, human
Conditions: both sexes, human, plasma, oral; for Tmax: read-out: tmax, Median
Procedure: The effect of food on the pharmacokinetics (PK) of Compound (a) was assessed in healthy participants after a single oral dose of SF2a/b, described in Example 1, administered at different dose levels in a randomized single dose, 2-period crossover study. The effect of food on the PK of Compound (a) was determined at 3 different dose levels (50 mg, 200 mg, and 800 mg) for a standardized breakfast; at one dose level (800 mg) for a high-fat, high-calorie breakfast; at two dose levels (200 mg and 800 mg) for a low-fat, low-calorie breakfast, as well as for a low-fat, high-calorie breakfast. 124 healthy adult participants (male and female, 18 to 55 years of age) were enrolled in this study. The volunteers were divided in six panels, which were organized as follows: • Panel […]: • Treatment D: A single 800-mg dose (4×200-mg tablets) of Compound (a) SF2b in fasted conditions. • Treatment E: A single 800-mg dose (4×200-mg tablets) of Compound (a) SF2b in fed conditions (standardized breakfast). • Treatments D and E (treatment sequence group 1 [n=8]: DE; treatment sequence group 2 [n=8]: ED). Panel 4, n=14: • Treatment F: A single 200-mg dose (1×200-mg tablet) of Compound (a) SF2b in fasted conditions. • Treatment G: A single 200-mg dose (1×200-mg tablet) of Compound (a) SF2b, in fed conditions (standardized breakfast). • Treatments F and G (treatment sequence group 1 [n=7]: FG; treatment sequence group 2 [n=7]: GF). Panel […]: • Treatment H: A single 50-mg dose (1×50-mg tablet) of Compound (a) SF2a in fasted conditions. • Treatment I: A single 50-mg dose (1×50-mg tablet) of Compound (a) SF2a in fed conditions (standardized breakfast). • Treatments H and I (treatment sequence group 1 [n=7]: HI; treatment sequence group 2 [n=7]: IH). Panel 6 (n=16): • Treatment J: single 800-mg dose (4×200-mg tablets) of Compound (a) administered as SF2b in fasted conditions. • Treatment K: single 800-mg dose (4×200-mg tablets) of Compound (a) administered as SF2b in fed conditions (high-fat, high-calorie breakfast). • Treatments J and K (treatment sequence group 1 [n=8]: JK; treatment sequence group 2 [n=8]: KJ). Panel 7 (n=32): • Treatment L: single 800-mg dose (4×200-mg tablets) of Compound (a) administered as SF2b in fed conditions (low-fat, low-calorie breakfast). • Treatment M: single 800-mg dose (4×200-mg tablets) of Compound (a) administered as SF2b in fed conditions (low-fat, high-calorie breakfast). • Treatment L (n=16) or Treatment M (n=16). Panel 8 (n=32): • Treatment N: single 200-mg dose (1×200-mg tablet) of Compound (a) administered as SF2b in fed conditions (low-fat, low-calorie breakfast). • Treatment O: single 200-mg dose (1×200-mg tablet) of Compound (a) administered as SF2b in fed conditions (low-fat, high-calorie breakfast). • Treatment N (n=16) or Treatment O (n=16). Tablets were administered orally, together with approximately 240 mL of non-carbonated water, in fasted or fed conditions. […] On day 1 of all treatments in each panel, the participants had fasted overnight for at least 10 hours before study drug intake. Intake of water was not allowed from 2 hours before and until 2 hours after study drug intake, except for the water used for study drug intake and breakfast. In case of intake in fed conditions, study drug was administered within 10 minutes after completing a standardized breakfast (Treatments E, G, and I), or a high-fat, high-calorie breakfast (Treatment K), a low-fat, low-calorie breakfast (Treatments L and N), or a low-fat, high-calorie breakfast (Treatments M and O). For treatments E, G, and I a standardized breakfast was served, consisting of (or its equivalent) 4 slices of bread, 2 slices of ham or cheese, butter, jelly, and 1 or 2 cups (up to 355 mL) of decaffeinated coffee or tea with milk and/or sugar, if desired (containing approximately: fat: 21 g, carbohydrates: 67 g, proteins: 19 g; total calories: 533 kcal). For treatment K in a high-fat, high-calorie breakfast was served. […]

Q: Which AUC(0-inf) (200 mg, 200 mg SF2b, fed, standardized breakfast (Tables 5E, 5G), read-out: AUC∞, Geometric LS Means Treatment G) does the source give for COc1cc(NC(C(=O)c2c[nH]c3ccc(OC(F)(F)F)cc23)c2ccc(Cl)cc2OC)cc(S(C)(=O)=O)c1 (stereo not drawn) [Compound (a)] here?
A: The AUC(0-inf) was 103 µg·h/mL.

Q: And the Cmax (200 mg, 200 mg SF2b, fed, standardized breakfast (Tables 5E, 5G), read-out: Cmax, Geometric LS Means Treatment G)?
A: The Cmax was 0.961 µg/mL.

Q: What about the AUC(0-t) (200 mg, 200 mg SF2b, standardized breakfast, linear mixed effects model (Table 5B), read-out: AUClast, Geometric Mean Treatment G) of the same compound?
A: The AUC(0-t) was 102 µg·h/mL.

Q: What about the AUC(0-inf) (200 mg, 200 mg SF2b, standardized breakfast, linear mixed effects model (Table 5B), read-out: AUC∞, Geometric Mean Treatment G) of the same compound?
A: The AUC(0-inf) was 104 µg·h/mL.

Q: What about the Cmax (200 mg, 200 mg SF2b, standardized breakfast, linear mixed effects model (Table 5B), read-out: Cmax, Geometric Mean Treatment G) of the same compound?
A: The Cmax was 0.984 µg/mL.

Q: And the AUC(0-t) (200 mg, Treatment F: single 200 mg (SF2b), fasted, read-out: AUClast, Geo. Mean)?
A: Its AUC(0-t) is 61.1 µg·h/mL.

Q: What about the AUC(0-t) (200 mg, Treatment F: single 200 mg (SF2b), fasted, read-out: AUClast, Mean) of the same compound?
A: Its AUC(0-t) is 64.8 µg·h/mL.

Q: And the AUC(0-t) (200 mg, Treatment F: single 200 mg (SF2b), fasted, read-out: AUClast, Median)?
A: Its AUC(0-t) is 59 µg·h/mL.

Q: What about the AUC(0-inf) (200 mg, Treatment F: single 200 mg (SF2b), fasted, read-out: AUC∞, Geo. Mean) of the same compound?
A: The AUC(0-inf) was 59.6 µg·h/mL.

Q: What about the AUC(0-inf) (200 mg, Treatment F: single 200 mg (SF2b), fasted, read-out: AUC∞, Mean) of the same compound?
A: The AUC(0-inf) was 62 µg·h/mL.

Q: And the AUC(0-inf) (200 mg, Treatment F: single 200 mg (SF2b), fasted, read-out: AUC∞, Median)?
A: The AUC(0-inf) was 58.5 µg·h/mL.

Q: What about the Cmax (200 mg, Treatment F: single 200 mg (SF2b), fasted, read-out: Cmax, Geo. Mean) of the same compound?
A: Its Cmax is 0.573 µg/mL.

Q: And the Cmax (200 mg, Treatment F: single 200 mg (SF2b), fasted, read-out: Cmax, Mean)?
A: The Cmax was 0.602 µg/mL.

Q: And the Cmax (200 mg, Treatment F: single 200 mg (SF2b), fasted, read-out: Cmax, Median)?
A: The Cmax was 0.58 µg/mL.

Q: And the half-life (200 mg, Treatment F: single 200 mg (SF2b), fasted, read-out: t1/2, term, Geo. Mean (converted))?
A: Its half-life is 188 h.

Q: What about the half-life (200 mg, Treatment F: single 200 mg (SF2b), fasted, read-out: t1/2, term, Mean (converted)) of the same compound?
A: Its half-life is 205 h.

Q: What about the half-life (200 mg, Treatment F: single 200 mg (SF2b), fasted, read-out: t1/2, term, Median (converted)) of the same compound?
A: The half-life was 174 h.

Q: And the Tmax (200 mg, Treatment F: single 200 mg (SF2b), fasted)?
A: Its Tmax is 7.5 h.

Q: What about the AUC(0-t) (200 mg, Treatment G: single 200 mg (SF2b), fed, standardized breakfast, read-out: AUClast, Geo. Mean) of the same compound?
A: The AUC(0-t) was 97.2 µg·h/mL.

Q: And the AUC(0-t) (200 mg, Treatment G: single 200 mg (SF2b), fed, standardized breakfast, read-out: AUClast, Mean)?
A: The AUC(0-t) was 100 µg·h/mL.

Q: And the AUC(0-t) (200 mg, Treatment G: single 200 mg (SF2b), fed, standardized breakfast, read-out: AUClast, Median)?
A: Its AUC(0-t) is 89.5 µg·h/mL.

Q: What about the AUC(0-inf) (200 mg, Treatment G: single 200 mg (SF2b), fed, standardized breakfast, read-out: AUC∞, Geo. Mean) of the same compound?
A: The AUC(0-inf) was 102 µg·h/mL.

Q: And the AUC(0-inf) (200 mg, Treatment G: single 200 mg (SF2b), fed, standardized breakfast, read-out: AUC∞, Mean)?
A: Its AUC(0-inf) is 106 µg·h/mL.

Q: And the AUC(0-inf) (200 mg, Treatment G: single 200 mg (SF2b), fed, standardized breakfast, read-out: AUC∞, Median)?
A: The AUC(0-inf) was 95.3 µg·h/mL.

Q: And the Cmax (200 mg, Treatment G: single 200 mg (SF2b), fed, standardized breakfast, read-out: Cmax, Geo. Mean)?
A: The Cmax was 0.961 µg/mL.

Q: What about the Cmax (200 mg, Treatment G: single 200 mg (SF2b), fed, standardized breakfast, read-out: Cmax, Mean) of the same compound?
A: The Cmax was 0.996 µg/mL.

Q: And the Cmax (200 mg, Treatment G: single 200 mg (SF2b), fed, standardized breakfast, read-out: Cmax, Median)?
A: Its Cmax is 0.892 µg/mL.

Q: And the half-life (200 mg, Treatment G: single 200 mg (SF2b), fed, standardized breakfast, read-out: t1/2, term, Geo. Mean (converted))?
A: Its half-life is 193 h.

Q: What about the half-life (200 mg, Treatment G: single 200 mg (SF2b), fed, standardized breakfast, read-out: t1/2, term, Mean (converted)) of the same compound?
A: The half-life was 198 h.

Q: And the half-life (200 mg, Treatment G: single 200 mg (SF2b), fed, standardized breakfast, read-out: t1/2, term, Median (converted))?
A: The half-life was 208 h.

Q: What about the Tmax (200 mg, Treatment G: single 200 mg (SF2b), fed, standardized breakfast) of the same compound?
A: The Tmax was 8 h.

Q: What about the AUC(0-t) (800 mg, 800 mg SF2b, fasted, linear mixed effects model (Table 5A), read-out: AUClast, Geometric Mean Treatment D) of the same compound?
A: The AUC(0-t) was 140 µg·h/mL.

Q: What about the AUC(0-inf) (800 mg, 800 mg SF2b, fasted, linear mixed effects model (Table 5A), read-out: AUC∞, Geometric Mean Treatment D) of the same compound?
A: The AUC(0-inf) was 148 µg·h/mL.

Q: And the Cmax (800 mg, 800 mg SF2b, fasted, linear mixed effects model (Table 5A), read-out: Cmax, Geometric Mean Treatment D)?
A: Its Cmax is 1.22 µg/mL.

Q: And the AUC(0-t) (800 mg, 800 mg SF2b, fasted, read-out: AUClast, Geometric LS Means Treatment J)?
A: Its AUC(0-t) is 107 µg·h/mL.

Q: What about the AUC(0-inf) (800 mg, 800 mg SF2b, fasted, read-out: AUC∞, Geometric LS Means Treatment J) of the same compound?
A: Its AUC(0-inf) is 110 µg·h/mL.

Q: What about the Cmax (800 mg, 800 mg SF2b, fasted, read-out: Cmax, Geometric LS Means Treatment J) of the same compound?
A: The Cmax was 0.991 µg/mL.

Q: What about the AUC(0-t) (800 mg, 800 mg SF2b, fed, high-fat, high-calorie breakfast, read-out: AUClast, Geometric LS Means Treatment K) of the same compound?
A: Its AUC(0-t) is 421 µg·h/mL.

Q: And the AUC(0-inf) (800 mg, 800 mg SF2b, fed, high-fat, high-calorie breakfast, read-out: AUC∞, Geometric LS Means Treatment K)?
A: The AUC(0-inf) was 422 µg·h/mL.
